In US10500197B2, “Use of oligopyridylamides to inhibit mutant p53 amyloid formation and restore its tumor suppressor function” (New York University, priority 2017, dated 2019):
“Also recorded” adds a separate entry of the source. Where no end group is shown, it is not given here.

Legend:
R248W mutant p53 peptide = R248W mutant p53 peptide (Homo sapiens, UniProt P04637, R248W); assay: Thioflavin T (ThT) assay, inhibition of R248W peptide aggregation; assay type: biochemical; conditions: 1:1 ratio to R248W peptide, 37° C., 10 hours
Experimental: (§1) This fluorescence can be monitored overtime to estimate the increase in beta-sheet structure of incubated peptides, indicating amyloid formation. […] 50 μM ThT was incubated at 37° C. with varying concentrations of peptides and inhibitors to estimate both the aggregation propensity of mutant peptides and the abrogation of aggregation brought about by inhibitor treatment. All samples were sonicated, including the ThT solution, prior to each addition of peptides to ensure the obtainment of clear sigmoidal curves. Fluorescence in transparent-bottom 96-well sample plates was monitored by the cell plate reader Synergy H1 (BioTek).
To test the inhibition efficacy of these peptides, they were subjected to a ThT assay whereby a fixed concentration of R248W was treated with varying concentrations of the respective inhibitor peptide in the presence of ThT dye and buffer. […] It is hypothesized that this effect is due to the relative hydrophobicity of the PAS sequence (FFLIPKG) (FIG. 4B).
10 compounds based on the oligopyridylamide molecular scaffolds have been tested on mutant p53 aggregation models. A ThT assay was used to test the inhibition capability of each compound at a 1:1 ratio to the R248W mutant peptide.

[1] = system: MIA PaCa-2 cells (R248W p53 mutant); assay: MTS cell viability assay in MIA PaCa-2 cells; assay type: cell-based; conditions: 5 and 10 μM, 24 and 48 hours, serum-free media
Experimental: MIA PaCa-2 (CRL-1420) cells, which contain the R248W p53 contact mutant, were obtained from ATCC and cultured in ATCC-formulated Dulbecco's Modified Eagle's Medium supplemented with 10% fetal bovine serum (FBS), 2.5% horse serum, 4% 200 mM L-glutamine and 1% penicillin/streptomycin. A separate stock of serum-free medium was kept for cell viability assays. Cells were split at a 1:3 ratio 2-3 times a week and maintained at 80% confluence and >85% viability. Viability was regularly measured through Trypan Blue dilution correction during cell counting. Cell cultures were stored at 37° C. in T75 coated flasks and kept under 5% CO2.
MTS assays were performed with Promega CellTiter One MTS solution according to protocol. MIA PaCa-2 Cells were seeded at 2,000 cells/well and were incubated for 24 hours to allow proper adherence to the well. On treatment day, wells were washed with warm PBS and media was replaced with a serum-free version. If treatment peptides were purified from crude form, they were also filtered using a 0.2 µm filter before introduction to cells. On MTS reading day, media was changed again (serum-free) and 20 μL of MTS was added to each 100 μL well. Cells were incubated at 37° C. for 2 hours before reading absorbance at 490 nm using Synergy H1 (BioTek) equipped with Gen5 software.
(§2) MTS assays were performed with Promega CellTiter One MTS solution according to protocol. MIA PaCa-2 cells were seeded at 2,000 cells/well, MCF-7 at 4,000 cells/well, COS-7 at 5,000 cells/well and HeLa at 3,000 cells/well. These values were individually optimized for the assay prior to experimentation. All cells were incubated for 24 hours to allow proper adherence to the well. On treatment day, wells were washed with warm PBS and media was replaced with a serum-free version. If treatment peptides were purified from crude form, they were also filtered using a 0.2 µm filter before introduction to cells. On MTS reading day, media was changed again (serum-free) and 20 μL of MTS was added to each 100 μL well. Cells were incubated at 37° C. for 2 hours before reading absorbance at 490 nm using Synergy H1 (BioTek) equipped with Gen5 software. Background absorbance from control wells was quantified and subtracted from obtained experimental absorbance values.
The two classes of designed peptide inhibitors have been introduced to a cancer cell-line that harbors the R248W p53 mutant, MIA PaCa-29. It has been hypothesized that upon co-localization of the inhibitors with mutant p53, mutant p53 aggregates will be abrogated, resulting in the release of wild-type p53 from cellular inclusions and, eventually, the induction of apoptosis. The 4 designed peptides were introduced to MIA PaCa-2 cells at 5 and 10 μM for 24 and 48 hour incubation periods. MTS assay was used to assess cell viability after treatment, whereby the bio-reduction of the MTS tetrazolium compound results in detectable color change that is proportional to the number of viable cells left in a sample (see Example 1).
MIA PaCa-2 cells were incubated with ADH compounds 17, 27, 31, 37, 39, 40, 41, 45, 46, and 52 (5 and 10 μM) for 24 and 48 hours. Cell viability was determined using the MTS assay.

[2] = system: MCF-7 cells (wild-type p53); assay: MTS cell viability in MCF-7 cells; assay type: cell-based; conditions: 5 and 10 μM, 24 hours, serum-free media
Experimental: as §2
(§3) It has been shown that the ADH compounds have no toxic effect on N2a cells, which carry wild-type p53. Their effect on other wild-type p53 cell lines: MCF-7 and COS-7 was further investigated. Cells were incubated with ADH compounds 17, 27, 40, 41 and 46 for 24 hours at 5 and 10 μM in serum-free media before determining cell viability via MTS (FIG. 2).

[3] = system: COS-7 cells (wild-type p53); assay: MTS cell viability in COS-7 cells; assay type: cell-based; conditions: 5 and 10 μM, 24 hours, serum-free media
Experimental: as §2, §3

HeLa cells = assay: MTS cell viability in HeLa cells; assay type: cell-based; conditions: 5 or 10 μM, 24 hours, serum-free media
Experimental: as §2
It has been hypothesized that the ADH compounds may bind to wild-type p53 in a manner that preserves its main function, yet disrupts other protein-protein interactions in the cellular environment. HeLa cells are known to have very low p53 expression levels, which is attributed to the expression of the HPV-E6 protein. E6 proteins target p53 for proteasomal degradation via the ubiquitin pathway by binding to p53's core domain (residues 94-292) and C-terminus. Because it has been hypothesized that the effective ADH compounds (40, 41, and 46) target the p53 DNA-binding domain located in its core region, the compounds may prevent E6 binding, leading to p53 accumulation and eventually apoptosis. […] Since ReACp53 is a sequence-specific peptide that targets the p53 DNA-binding domain, it may also prevent E6 binding through a similar mechanism.

[4] = molecular target: R248W mutant p53 peptide aggregates (Homo sapiens, UniProt P04637, R248W); assay: Multi-step ThT assay, abrogation of pre-formed R248W aggregates; assay type: biochemical; conditions: 50 μM R248W incubated 35 minutes at 37° C., then equimolar ADH compound
Experimental: as §1
Accordingly, a multi-step ThT assay was designed that would evaluate the ability of an inhibitor to abrogate aggregation at different stages of amyloid formation. Based on the sigmoidal curve produced in ThT assays of the R248W peptide, 3 time points were selected to introduce the inhibitor to mutant p53 aggregates. The first would occur at 0 mins, where no R248W aggregates would have been previously formed. The second time point would be approximately 30 mins after aggregation begins, during the exponential increase in fluorescence of the R248W ThT sigmoidal curve. The last time point would be during the plateau phase of the curve at approximately 5 hours after initiation of the assay, whereby aggregates reach an equilibrium phase and stabilize in solution.
In order to target p53 aggregation in the cellular environment, the ADH compounds according to the invention would need to bind and abrogate pre-formed p53 aggregates, as well as prevent additional aggregation. Inhibition of pre-formed aggregates would be a crucial feature of therapeutics that successfully target mutant p53 aggregation in cancer. Using the multi-step thioflavin T assay, where the inhibitor is added to R248W at either elongation or the plateau phases of amyloid formation, 50 μM of the R248W peptide was incubated at 37° C. for 35 minutes before adding an equimolar ratio of the ADH compound (FIG. 1).

Row | Molecule | inhibition of R248W mutant p53 aggregation by ADH compounds (ThT fluorescence) (R248W mutant p53 peptide) | effect of ADH compounds on MIA PaCa-2 cell viability (MTS) [1] | toxicity in MCF-7 cells (MTS) [2] | toxicity in COS-7 cells (MTS) [3] | toxicity in HeLa cells (MTS) (HeLa cells) | abrogation of R248W aggregates at the elongation phase [4] | cytotoxicity of peptides in MIA PaCa-2 cells (MTS) [1]
1 | COC(=O)c1ccc(NC(=O)c2ccc(NC(=O)c3ccc(NC(=O)c4ccc([N+](=O)[O-])c(OCC(C)C)n4)c(OCc4ccccc4)n3)c(OCC(=O)O)n2)c(OCC(=O)O)n1 [ADH-31] | inhibit mutant p53 aggregation with varying levels of effectiveness | – | – | – | – | – | –
2 | COC(=O)c1ccc(NC(=O)c2ccc(NC(=O)c3ccc([N+](=O)[O-])c(OCC(=O)O)n3)c(OCc3ccccc3)n2)c(OCC(=O)O)n1 [ADH-17] | – | non-toxic effects | No significant toxicity; also recorded: do not induce significant toxicity | No significant toxicity; also recorded: do not induce significant toxicity | – | – | –
3 | CCCCOc1nc(C(=O)Nc2ccc(C(=O)Nc3ccc(C(=O)OC)nc3OCCCN)nc2OCCCN)ccc1[N+](=O)[O-] [ADH-40] | inhibit mutant p53 aggregation with varying levels of effectiveness | highly significant toxicity; also recorded: extremely significant effect on cell viability | No significant toxicity; also recorded: do not induce significant toxicity | No significant toxicity; also recorded: do not induce significant toxicity | Significant toxicity; also recorded: significantly toxic | abrogate aggregation at the elongation phase; also recorded: able to target and abrogate aggregates at the elongation phase | –
4 | COC(=O)c1ccc(NC(=O)c2ccc(NC(=O)c3ccc([N+](=O)[O-])c(OCCCN)n3)c(OCc3ccccc3)n2)c(OCCCN)n1 [ADH-37] | inhibit mutant p53 aggregation with varying levels of effectiveness | – | – | – | – | – | –
5 | ReACp53: recently developed peptide that targets p53 aggregation, oligoarginine tag, (image prefix) RPILTRITLE (also: oligoarginine tag) [reference compound] | – | – | No significant toxicity; also recorded: does not appear to induce toxicity | No significant toxicity; also recorded: does not appear to induce toxicity | induce significant toxicity; also recorded: significantly toxic | – | induce cell death; also recorded: significantly cytotoxic
6 | COC(=O)c1ccc(NC(=O)c2ccc(NC(=O)c3ccc([N+](=O)[O-])c(OCc4ccccc4)n3)c(OCC(=O)O)n2)c(OCC(=O)O)n1 [ADH-27] | – | – | No significant toxicity; also recorded: do not induce significant toxicity | No significant toxicity; also recorded: do not induce significant toxicity | – | – | –
7 | COC(=O)c1ccc(NC(=O)c2ccc(NC(=O)c3ccc([N+](=O)[O-])c(OCC(C)C)n3)c(OCCCN)n2)c(OCCCN)n1 [ADH-46] | inhibit mutant p53 aggregation with varying levels of effectiveness | highly significant toxicity; also recorded: extremely significant effect on cell viability | No significant toxicity; also recorded: do not induce significant toxicity | No significant toxicity; also recorded: do not induce significant toxicity | Significant toxicity; also recorded: significantly toxic | abrogate aggregation at the elongation phase; also recorded: able to target and abrogate aggregates at the elongation phase | –
8 | COC(=O)c1ccc(NC(=O)c2ccc(NC(=O)c3ccc([N+](=O)[O-])c(OC(C)C)n3)c(OCc3ccccc3)n2)c(OCCCN)n1 [ADH-39] | inhibit mutant p53 aggregation with varying levels of effectiveness | – | – | – | – | – | –
